Structures can show the parent of a compound that is named as a salt. Where two headings read alike, the source gives them in different places.
Biological target: T1, human TLR8 (Homo sapiens, UniProt Q9NR97)
T1 construct: expressed in transfected cells
T1 sequence (Q9NR97 27-1041): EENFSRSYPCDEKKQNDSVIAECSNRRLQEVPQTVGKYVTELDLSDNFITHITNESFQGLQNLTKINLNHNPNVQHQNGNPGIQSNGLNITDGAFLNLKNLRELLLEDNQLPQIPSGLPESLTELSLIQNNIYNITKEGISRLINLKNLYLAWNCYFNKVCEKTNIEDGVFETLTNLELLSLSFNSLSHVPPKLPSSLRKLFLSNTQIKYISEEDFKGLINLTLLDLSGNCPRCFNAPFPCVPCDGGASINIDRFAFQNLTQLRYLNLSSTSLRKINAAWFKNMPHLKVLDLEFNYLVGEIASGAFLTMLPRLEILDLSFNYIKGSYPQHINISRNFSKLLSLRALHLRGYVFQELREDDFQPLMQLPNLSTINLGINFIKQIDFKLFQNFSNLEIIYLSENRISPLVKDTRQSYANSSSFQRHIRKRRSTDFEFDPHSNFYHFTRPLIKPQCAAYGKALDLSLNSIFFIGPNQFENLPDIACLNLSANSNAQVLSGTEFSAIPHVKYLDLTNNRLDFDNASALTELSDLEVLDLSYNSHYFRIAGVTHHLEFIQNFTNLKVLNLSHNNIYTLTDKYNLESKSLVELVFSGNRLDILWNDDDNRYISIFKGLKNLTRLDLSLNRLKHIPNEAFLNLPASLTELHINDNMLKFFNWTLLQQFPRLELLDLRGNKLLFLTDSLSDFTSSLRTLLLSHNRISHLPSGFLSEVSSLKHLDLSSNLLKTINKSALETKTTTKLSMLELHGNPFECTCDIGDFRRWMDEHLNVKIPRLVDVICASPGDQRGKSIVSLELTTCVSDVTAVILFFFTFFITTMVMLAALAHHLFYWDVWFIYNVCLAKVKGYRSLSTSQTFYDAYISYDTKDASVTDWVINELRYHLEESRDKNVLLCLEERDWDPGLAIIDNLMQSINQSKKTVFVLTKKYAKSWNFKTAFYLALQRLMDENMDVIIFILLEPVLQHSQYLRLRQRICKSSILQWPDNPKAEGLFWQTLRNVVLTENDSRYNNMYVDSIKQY
Test: TLR7/8 reporter assay (HEK293, NFκB Nanoluc luciferase reporter), human TLR8
Format: cell-based
Settings: read-out: hTLR8 EC50
Experimental: HEK293 cells (ATCC, #CRL-1573) were co-transfected with an expression vector having a nucleotide sequence encoding a TLR (human TLR7, human TLR8 or mouse TLR7) protein and a Nanoluc PEST luciferase reporter vector having an NFκB response element sequence (Genbank: JQ513377 bases 33 to 84) integrated therein. Thereafter, the transfected cells were cultured in DMEM (Sigma-Aldrich, #D5796-500 mL) containing Geneticin (Gibco, #10131-027) at a final concentration of 800 μg/mL, Hygromycin B (Invitrogen, #10687010) at a final concentration of 500 μg/mL, penicillin streptomycin (Gibco, #15070-063) at a final concentration of 1% and a 10% fetal bovine serum (FBS) (HyClone, #SH30084.03) to obtain a stable cell line for expression.
To reporter cells obtained above, DMEM containing 10% FBS was added to prepare a suspension of 1×10^5 cells/mL. The suspension was added to the wells of a 384-well white plate coated with collagen I (hereinafter referred to as “384-well plate”, Corning, #356703) at a rate of 20 μL per well. The cells were cultured in the conditions of 37° C. and 5% CO2, overnight (18 hours) and allowed to adhere to the plate. A test sample was dissolved in DMSO. The solution was diluted by adding DMEM medium containing 10% FBS to the solution such that the concentration becomes 5-fold as high as a final concentration. The diluted DMEM medium was added to the wells of the 384-well plate at a ratio of 5 μL/well. After the medium was further incubated in the conditions of 37° C. and 5% CO2 for 24 hours, the plate was taken out and allowed to stand still at room temperature for 10 minutes. Thereafter, chemiluminescence was measured using Nano-Glo Luciferase Assay System (Promega, #N1120) and EnVision 2104 (PerkinElmer) plate reader. A dose-response curve was prepared for each test sample and the EC50 value was obtained as a concentration at 50% of the maximum signal. In the table, hTLR7 represents human TLR7 and hTLR8 represents human TLR8; and mTLR7 represents mouse TLR7. A data item attached with an asterisk (*) indicates the result of 7 hour-incubation and other data items are the results of 24-hour incubation.

| EC50 (24-hour incubation) [nM] | EC50 (asterisk (*): 7 hour-incubation) [nM] | SMILES |
| --- | --- | --- |
| 2160 | – | CCCCCNc1nc(N)nc2ccn(Cc3ccc(CNC4CC4)cc3OC)c12 [Ex3, 5-({4-[(cyclopropylamino)methyl]-2-methoxyphenyl}methyl)-N^4-pentyl-5H-pyrrolo[3,2-d]pyrimidine-2,4-diamine] |
| 1180 | – | CCCCCNc1nc(N)nc2ccn(Cc3ccc(CC4CCNCC4)cc3OC)c12 [Ex9, 5-({2-methoxy-4-[(piperidin-4-yl)methyl]phenyl}methyl)-N^4-pentyl-5H-pyrrolo[3,2-d]pyrimidine-2,4-diamine] |
| 220 | – | CCCCCNc1nc(N)nc2ccn(Cc3ccc(CN4CCNC[C@H]4CF)cc3OC)c12 [Ex1, 5-[(4-{[(2S)-2-(fluoromethyl)piperazin-1-yl]methyl}-2-methoxyphenyl)methyl]-N^4-pentyl-5H-pyrrolo[3,2-d]pyrimidine-2,4-diamine] |
| – | 685 | CCCCCNc1nc(N)nc2ccn(Cc3ccc(CNCC4CCC4)cc3OC)c12 [Ex12] |
| 2000 | – | CCCCCNc1nc(N)nc2c(Br)cn(Cc3ccc(CN4CCC[C@H]4CO)cc3OC)c12 [Ex7, {(2S)-1-[(4-{[2-amino-7-bromo-4-(pentylamino)-5H-pyrrolo[3,2-d]pyrimidin-5-yl]methyl}-3-methoxyphenyl)methyl]pyrrolidin-2-yl}methanol] |
| 4880 | – | CCCCCSc1nc(N)nc2ccn(Cc3ccc(CN4CC[C@@H](CN)C4)cc3OC)c12 [Ex15] |

Further lines, the compound ahead of its results:

| SMILES | EC50 (24-hour incubation) [nM] | EC50 (asterisk (*): 7 hour-incubation) [nM] |
| --- | --- | --- |
| CCCCCSc1nc(N)nc2ccn(Cc3ccc(CN4CCC[C@H]4CO)cc3OC)c12 [Ex5, {(2S)-1-[(4-{[2-amino-4-(pentylsulfanyl)-5H-pyrrolo[3,2-d]pyrimidin-5-yl]methyl}-3-methoxyphenyl)methyl]pyrrolidin-2-yl}methanol] | 11700 | – |
| COc1cc(CN2CCNC[C@H]2CF)ccc1Cn1ccc2nc(N)nc(SCc3cc(C)on3)c21 [Ex11] | 13300 | – |
| CCCCCSc1nc(N)nc2ccn(Cc3ccc(CN4CC[C@H]4CO)cc3OC)c12 [Ex13] | 6220 | – |
| CCCCCSc1nc(N)nc2ccn(Cc3ccc(CN4CCNCC4)cc3OC)c12 [Ex4, 5-({2-methoxy-4-[(piperazin-1-yl)methyl]phenyl}methyl)-4-(pentylsulfanyl)-5H-pyrrolo[3,2-d]pyrimidin-2-amine] | 2480 | – |
| CCCCCNc1nc(N)nc2c(Cl)cn(Cc3ccc(CN4CC[C@H]4CO)cc3OC)c12 [Ex17] | 3740 | – |
| CCCCCNc1nc(N)nc2ccn(Cc3ccc(CN4CCNC[C@@H]4CF)cc3OC)c12 [Ex10, 5-[(4-{[(2R)-2-(fluoromethyl)piperazin-1-yl]methyl}-2-methoxyphenyl)methyl]-N^4-pentyl-5H-pyrrolo[3,2-d]pyrimidine-2,4-diamine] | 716 | – |
| CCCCCNc1nc(N)nc2ccn(Cc3ccc(CN4CCN[C@@H](CF)C4)cc3OC)c12 [Ex2, 5-[(4-{[(3R)-3-(fluoromethyl)piperazin-1-yl]methyl}-2-methoxyphenyl)methyl]-N^4-pentyl-5H-pyrrolo[3,2-d]pyrimidine-2,4-diamine (trifluoroacetic acid) salt] | 1970 | – |
| CCCCCNc1nc(N)nc2c(Cl)cn(Cc3ccc(CN4CCC[C@H]4C(C)(C)O)cc3OC)c12 [Ex18] | 3630 | – |
| CCCCCNc1nc(N)nc2c(Cl)cn(Cc3ccc(CN4CCC[C@H]4CO)cc3OC)c12 [Ex6, {(2S)-1-[(4-{[2-amino-7-chloro-4-(pentylamino)-5H-pyrrolo[3,2-d]pyrimidin-5-yl]methyl}-3-methoxyphenyl)methyl]pyrrolidin-2-yl}methanol] | 964 | – |
| CCCCCSc1nc(N)nc2ccn(Cc3ccc(CN4CCC(O)CC4)cc3OC)c12 [Ex14] | 6590 | – |
| CCCCCNc1nc(N)nc2cc(C)n(Cc3ccc(CN4CCNCC4)cc3OC)c12 [Ex8, 5-({2-methoxy-4-[(piperazin-1-yl)methyl]phenyl}methyl)-6-methyl-N^4-pentyl-5H-pyrrolo[3,2-d]pyrimidine-2,4-diamine hydrochloride] | 2110 | – |
